Results published in patent US20240116985A1, “STAPLED PEPTIDES AND METHODS THEREOF” (priority 2020, published 2024).

What was measured:
[1] = target: T1, full-length beta-Catenin (Uniprot ID P35222) (Homo sapiens, UniProt P35222); assay: Fluorescence polarization IC50 (beta-catenin / 5FAM-TCF4 10-53 competition); type: binding; conditions: fluorescence polarization; read-out: beta-Catenin FP IC50
T1 construct: 10 nM full-length beta-Catenin (Uniprot ID P35222)
T1 sequence (P35222 1-781): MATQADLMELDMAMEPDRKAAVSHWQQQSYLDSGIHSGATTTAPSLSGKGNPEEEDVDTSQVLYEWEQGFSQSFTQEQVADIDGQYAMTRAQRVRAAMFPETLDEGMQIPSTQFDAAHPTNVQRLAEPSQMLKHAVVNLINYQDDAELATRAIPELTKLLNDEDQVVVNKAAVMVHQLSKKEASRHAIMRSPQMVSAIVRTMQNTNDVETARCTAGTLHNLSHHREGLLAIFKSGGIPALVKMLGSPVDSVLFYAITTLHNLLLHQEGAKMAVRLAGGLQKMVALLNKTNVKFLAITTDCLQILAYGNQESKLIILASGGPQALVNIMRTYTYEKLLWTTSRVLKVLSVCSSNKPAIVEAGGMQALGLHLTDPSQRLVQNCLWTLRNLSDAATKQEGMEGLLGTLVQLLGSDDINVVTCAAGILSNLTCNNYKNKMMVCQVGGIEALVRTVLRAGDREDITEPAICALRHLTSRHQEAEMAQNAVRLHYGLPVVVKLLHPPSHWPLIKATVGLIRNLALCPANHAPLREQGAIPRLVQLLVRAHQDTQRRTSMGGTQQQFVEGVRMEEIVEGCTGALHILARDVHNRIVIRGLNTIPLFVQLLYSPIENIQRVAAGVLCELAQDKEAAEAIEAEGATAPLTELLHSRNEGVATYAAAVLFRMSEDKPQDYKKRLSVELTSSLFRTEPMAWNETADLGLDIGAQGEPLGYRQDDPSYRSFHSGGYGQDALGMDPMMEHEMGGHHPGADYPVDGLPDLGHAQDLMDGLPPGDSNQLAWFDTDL

[2] = target: T2, beta-catenin/TCF4 engagement (Homo sapiens, UniProt P35222); assay: Nano-BRET target engagement assay (B-cat-Halo & TCF4-Luc in HEK293 cells); type: cell-based; conditions: absolute IC50; read-out: NanoBRET Abs IC50
T2 construct: expressed in transfected cells; host or cells: HEK293
T2 sequence (P35222 1-781): T1 sequence (P35222 1-781)

Structure (SMILES)	IC50 [1] [nM]	IC50 [2] [nM]
CC(=O)N1CCC[C@]12CC=CCCCC1(CCCC=CCCCOC(=O)N3CC[C@@](C(=O)N[C@@H](Cc4ccccc4)C(=O)N[C@@H](Cc4csc5ccccc45)C(=O)N[C@@H](CC(=O)N4CCOCC4)C(N)=O)(C3)NC(=O)[C@H](CC(C)C)NC(=O)[C@H](Cc3ccccc3)NC(=O)[C@H](C)NC(=O)[C@H](CCCCNC(=O)CN3CCOCC3)NC(=O)[C@H](CCC(N)=O)NC(=O)[C@H](CC(=O)O)NC1=O)NC(=O)[C@H](CC1CCCCC1)NC(=O)[C@H](CC(N)=O)NC2=O (stereo partly drawn) [I-2527, Ac-PL3-Asn-Cha-B5-Asp-Gln-[MorphAc]Lys-Ala-Phe-Leu-PyrS2-Phe-BztA-MorphAsn-NH2]	263	> 20000
CC(=O)N1CCC[C@]12CC=CCCCC1(CCCC=CCCCOC(=O)N3CC[C@@](C(=O)N[C@@H](Cc4ccccc4C(F)(F)F)C(=O)N[C@@H](Cc4csc5ccccc45)C(=O)N[C@@H](CCC(=O)N(C)C)C(N)=O)(C3)NC(=O)[C@H](CCC(=O)N(C)C)NC(=O)[C@H](Cc3ccccc3)NC(=O)[C@H](C)NC(=O)[C@H](C)NC(=O)[C@H](Cc3cccc(C(=O)O)c3)NC(=O)[C@H](CC(=O)O)NC1=O)NC(=O)[C@H](CC(C)(C)C)NC(=O)[C@H](CC(=O)O)NC2=O (stereo partly drawn) [I-2536, Ac-PL3-Asp-Npg-B5-Asp-3COOHF-Ala-Ala-Phe-Me2Gln-PyrS2-2F3MeF-BztA-Me2Gln-NH2]	13	4500
CC(=O)N1CCC[C@]12CC=CCCCC1(CCCC=CCCCOC(=O)N3CC[C@@](C(=O)N[C@@H](Cc4ccccc4C(F)(F)F)C(=O)N[C@@H](Cc4csc5ccccc45)C(=O)N[C@@H](CCC(=O)N(C)C)C(N)=O)(C3)NC(=O)[C@H](CCC(=O)N3CCOCC3)NC(=O)[C@H](Cc3ccccc3)NC(=O)[C@H](C)NC(=O)[C@H](C)NC(=O)[C@H](Cc3cccc(C(=O)O)c3)NC(=O)[C@H](CC(=O)O)NC1=O)NC(=O)[C@H](CC(C)(C)C)NC(=O)[C@H](CC(=O)O)NC2=O (stereo partly drawn) [I-2538, Ac-PL3-Asp-Npg-B5-Asp-3COOHF-Ala-Ala-Phe-MorphGln-PyrS2-2F3MeF-BztA-Me2Gln-NH2]	14	3500
CC(=O)NCCCC[C@@H]1NC(=O)[C@H](Cc2ccccc2)NC(=O)[C@H](C)NC(=O)[C@H](C)NC(=O)[C@H](Cc2cccc(C(=O)O)c2)NC(=O)[C@H](CC(=O)O)NC(=O)C2(CCCC=CCCCOC(=O)N3CC[C@@](C(=O)N[C@@H](Cc4ccccc4C(F)(F)F)C(=O)N[C@@H](Cc4csc5ccccc45)C(=O)N[C@@H](CCC(=O)N(C)C)C(N)=O)(C3)NC1=O)CCCC=CC[C@]1(CCCN1C(C)=O)C(=O)N[C@@H](CC(=O)O)C(=O)N[C@@H](CC(C)(C)C)C(=O)N2 (stereo partly drawn) [I-2539, Ac-PL3-Asp-Npg-B5-Asp-3COOHF-Ala-Ala-Phe-AcLys-PyrS2-2F3MeF-BztA-Me2Gln-NH2]	11	3600
CC(=O)NCCCC[C@@H]1NC(=O)[C@H](Cc2ccccc2)NC(=O)[C@H](C)NC(=O)[C@H](C)NC(=O)[C@H](Cc2cccc(C(=O)O)c2)NC(=O)[C@H](CC(=O)O)NC(=O)C2(CCCC=CCCCOC(=O)N3CC[C@@](C(=O)N[C@@H](Cc4ccccc4C(F)(F)F)C(=O)N[C@@H](Cc4csc5ccccc45)C(=O)N[C@@H](CCC(=O)N(C)C)C(N)=O)(C3)NC1=O)CCCC=CC[C@]1(CCCN1C(C)=O)C(=O)N[C@@H](CC(=O)O)C(=O)N[C@@H](CC(C)(C)C)C(=O)N2 (stereo partly drawn) [I-2540, Ac-PL3-Asp-Npg-B5-Asp-3COOHF-Ala-Ala-Phe-AcLys-PyrS2-2F3MeF-BztA-Me2Gln-NH2]	14	3500
CC(=O)N1CCC[C@]12CC=CCCCC1(CCCC=CCCCOC(=O)N3CC[C@@](C(=O)N[C@@H](Cc4ccccc4C(F)(F)F)C(=O)N[C@@H](Cc4csc5ccccc45)C(=O)N[C@@H](CCC(=O)N4CCOCC4)C(N)=O)(C3)NC(=O)[C@H](Cc3ccccc3)NC(=O)[C@H](Cc3ccccc3)NC(=O)[C@H](C)NC(=O)[C@H](C)NC(=O)[C@H](Cc3cccc(C(=O)O)c3)NC(=O)[C@H](CC(=O)O)NC1=O)NC(=O)[C@H](CC(C)(C)C)NC(=O)[C@H](CC(=O)O)NC2=O (stereo partly drawn) [I-2543, Ac-PL3-Asp-Npg-B5-Asp-3COOHF-Ala-Ala-Phe-Phe-PyrS2-2F3MeF-BztA-MorphGln-NH2]	37	7300
CC(=O)N1CCC[C@]12CC=CCCCC1(CCCC=CCCCOC(=O)N3CC[C@@](C(=O)N[C@@H](Cc4ccccc4C(F)(F)F)C(=O)N[C@@H](Cc4csc5ccccc45)C(=O)N[C@@H](CCC(=O)N4CCOCC4)C(N)=O)(C3)NC(=O)[C@H](CCC(=O)N(C)C)NC(=O)[C@H](Cc3ccccc3)NC(=O)[C@H](C)NC(=O)[C@H](C)NC(=O)[C@H](Cc3cccc(C(=O)O)c3)NC(=O)[C@H](CC(=O)O)NC1=O)NC(=O)[C@H](CC(C)(C)C)NC(=O)[C@H](CC(=O)O)NC2=O (stereo partly drawn) [I-2544, Ac-PL3-Asp-Npg-B5-Asp-3COOHF-Ala-Ala-Phe-Me2Gln-PyrS2-2F3MeF-BztA-MorphGln-NH2]	11	4100
CC(=O)N1CCC[C@]12CC=CCCCC1(CCCC=CCCCOC(=O)N3CC[C@@](C(=O)N[C@@H](Cc4ccccc4C(F)(F)F)C(=O)N[C@@H](Cc4csc5ccccc45)C(=O)N[C@@H](CCC(=O)N4CCOCC4)C(N)=O)(C3)NC(=O)[C@H](CCC(=O)N(C)C)NC(=O)[C@H](Cc3ccccc3)NC(=O)[C@H](C)NC(=O)[C@H](C)NC(=O)[C@H](Cc3cccc(C(=O)O)c3)NC(=O)[C@H](CC(=O)O)NC1=O)NC(=O)[C@H](CC(C)(C)C)NC(=O)[C@H](CC(=O)O)NC2=O (stereo partly drawn) [I-2545, Ac-PL3-Asp-Npg-B5-Asp-3COOHF-Ala-Ala-Phe-Me2Gln-PyrS2-2F3MeF-BztA-MorphGln-NH2]	16	4000

Now from value to molecule:

IC50 [1] [nM]	IC50 [2] [nM]	Structure (SMILES)
21	4400	CC(=O)N1CCC[C@]12CC=CCCCC1(CCCC=CCCCOC(=O)N3CC[C@@](C(=O)N[C@@H](Cc4ccccc4C(F)(F)F)C(=O)N[C@@H](Cc4csc5ccccc45)C(=O)N[C@@H](CCC(=O)N(C)C)C(N)=O)(C3)NC(=O)[C@H](Cc3ccccc3)NC(=O)[C@H](Cc3ccccc3)NC(=O)[C@H](C)NC(=O)[C@H](C)NC(=O)[C@H](Cc3cccc(C(=O)O)c3)NC(=O)[C@H](CC(=O)O)NC1=O)NC(=O)[C@H](CC(C)(C)C)NC(=O)[C@H](CC(=O)O)NC2=O (stereo partly drawn) [I-2534, Ac-PL3-Asp-Npg-B5-Asp-3COOHF-Ala-Ala-Phe-Phe-PyrS2-2F3MeF-BztA-Me2Gln-NH2]
11	3700	CC(=O)N1CCC[C@]12CC=CCCCC1(CCCC=CCCCOC(=O)N3CC[C@@](C(=O)N[C@@H](Cc4ccccc4C(F)(F)F)C(=O)N[C@@H](Cc4csc5ccccc45)C(=O)N[C@@H](CCC(=O)N(C)C)C(N)=O)(C3)NC(=O)[C@H](CCC(=O)N(C)C)NC(=O)[C@H](Cc3ccccc3)NC(=O)[C@H](C)NC(=O)[C@H](C)NC(=O)[C@H](Cc3cccc(C(=O)O)c3)NC(=O)[C@H](CC(=O)O)NC1=O)NC(=O)[C@H](CC(C)(C)C)NC(=O)[C@H](CC(=O)O)NC2=O (stereo partly drawn) [I-2535, Ac-PL3-Asp-Npg-B5-Asp-3COOHF-Ala-Ala-Phe-Me2Gln-PyrS2-2F3MeF-BztA-Me2Gln-NH2]
11	2900	CC(=O)N1CCC[C@]12CC=CCCCC1(CCCC=CCCCOC(=O)N3CC[C@@](C(=O)N[C@@H](Cc4ccccc4C(F)(F)F)C(=O)N[C@@H](Cc4csc5ccccc45)C(=O)N[C@@H](CCC(=O)N(C)C)C(N)=O)(C3)NC(=O)[C@H](CCC(=O)N3CCOCC3)NC(=O)[C@H](Cc3ccccc3)NC(=O)[C@H](C)NC(=O)[C@H](C)NC(=O)[C@H](Cc3cccc(C(=O)O)c3)NC(=O)[C@H](CC(=O)O)NC1=O)NC(=O)[C@H](CC(C)(C)C)NC(=O)[C@H](CC(=O)O)NC2=O (stereo partly drawn) [I-2537, Ac-PL3-Asp-Npg-B5-Asp-3COOHF-Ala-Ala-Phe-MorphGln-PyrS2-2F3MeF-BztA-Me2Gln-NH2]
13	3500	CC(=O)N1CCC[C@]12CC=CCCCC1(CCCC=CCCCOC(=O)N3CC[C@@](C(=O)N[C@@H](Cc4ccccc4C(F)(F)F)C(=O)N[C@@H](Cc4csc5ccccc45)C(=O)N[C@@H](CCC(=O)N4CCOCC4)C(N)=O)(C3)NC(=O)[C@H](CCC(=O)N3CCOCC3)NC(=O)[C@H](Cc3ccccc3)NC(=O)[C@H](C)NC(=O)[C@H](C)NC(=O)[C@H](Cc3cccc(C(=O)O)c3)NC(=O)[C@H](CC(=O)O)NC1=O)NC(=O)[C@H](CC(C)(C)C)NC(=O)[C@H](CC(=O)O)NC2=O (stereo partly drawn) [I-2546, Ac-PL3-Asp-Npg-B5-Asp-3COOHF-Ala-Ala-Phe-MorphGln-PyrS2-2F3MeF-BztA-MorphGln-NH2]
13	3500	CC(=O)N1CCC[C@]12CC=CCCCC1(CCCC=CCCCOC(=O)N3CC[C@@](C(=O)N[C@@H](Cc4ccccc4C(F)(F)F)C(=O)N[C@@H](Cc4csc5ccccc45)C(=O)N[C@@H](CCC(=O)N4CCOCC4)C(N)=O)(C3)NC(=O)[C@H](CCC(=O)N3CCOCC3)NC(=O)[C@H](Cc3ccccc3)NC(=O)[C@H](C)NC(=O)[C@H](C)NC(=O)[C@H](Cc3cccc(C(=O)O)c3)NC(=O)[C@H](CC(=O)O)NC1=O)NC(=O)[C@H](CC(C)(C)C)NC(=O)[C@H](CC(=O)O)NC2=O (stereo partly drawn) [I-2547, Ac-PL3-Asp-Npg-B5-Asp-3COOHF-Ala-Ala-Phe-MorphGln-PyrS2-2F3MeF-BztA-MorphGln-NH2]
